Data: ChEMBL document CHEMBL1141959, “Metalloform-selective inhibition: synthesis and structure-activity analysis of Mn(II)-form-selective inhibitors of Escherichia coli methionine aminopeptidase” (Bioorg Med Chem Lett, 2005)

How the values were obtained:
[1] = target: T1, Methionine aminopeptidase (Escherichia coli K-12, UniProt P0AE18); assay: Inhibitory activity against Ni(II) form of Escherichia coli MetAP
T1 sequence (P0AE18 whole entry): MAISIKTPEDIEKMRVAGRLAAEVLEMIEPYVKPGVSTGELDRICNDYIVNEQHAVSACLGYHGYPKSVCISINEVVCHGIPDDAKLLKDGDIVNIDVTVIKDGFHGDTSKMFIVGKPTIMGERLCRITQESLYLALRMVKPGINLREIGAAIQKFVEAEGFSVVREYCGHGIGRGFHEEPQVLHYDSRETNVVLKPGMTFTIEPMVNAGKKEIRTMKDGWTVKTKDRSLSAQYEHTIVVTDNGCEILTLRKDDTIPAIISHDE

[2] = target: T1, Methionine aminopeptidase; assay: Inhibitory activity against Fe(II) form of Escherichia coli MetAP
[3] = target: T1, Methionine aminopeptidase; assay: Inhibitory activity against Co(II) form of Escherichia coli MetAP
[4] = target: T1, Methionine aminopeptidase; assay: Inhibitory activity against Mn(II) form of Escherichia coli MetAP

In the case of `O=C(O)c1ccc(-c2ccccc2CF)o1`, the IC50 [1] is reported as 68 µM, the IC50 [2] is reported as 85.2 µM and the IC50 [3] is reported as 55.4 µM. For the same molecule, the IC50 [4] was 0.893 µM.
For `O=C(O)c1ccc(-c2ccccc2C(F)(F)F)o1`, the IC50 [1] was 165 µM, the IC50 [2] was 158 µM and the IC50 [3] was 101 µM. The IC50 [4] was 0.29 µM.
For `O=C(O)c1ccc(-c2cc([N+](=O)[O-])ccc2Cl)o1`, the IC50 [1] was 38.4 µM, the IC50 [2] was 31.1 µM and the IC50 [3] was 44.3 µM. It also gave an IC50 [4] of 1.32 µM.
For `COC(=O)c1ccccc1-c1ccc(C(=O)O)o1`, the IC50 [1] was 194 µM, the IC50 [2] was > 200 µM and the IC50 [3] was 160 µM. For the same molecule, the IC50 [4] was 3.47 µM.
Work on `O=C(O)c1ccc(Cc2ccccc2)o1` yielded an IC50 [1] of 67.5 µM, an IC50 [2] of 33.7 µM and an IC50 [3] of 42.5 µM. For the same molecule, the IC50 [4] was 33.5 µM.
`O=C(O)c1ccc(-c2ccc(Cl)cc2)o1` was tested, and the IC50 [1] was > 200 µM, the IC50 [2] was > 200 µM and the IC50 [3] was 180 µM. The IC50 [4] was 12.1 µM.
With `OCc1ccc(-c2ccccc2Cl)o1` the IC50 [1] was 55 µM, the IC50 [2] was > 200 µM and the IC50 [3] was 84.2 µM. For the same molecule, the IC50 [4] was 28.1 µM.
`N#CCc1ccc(-c2ccccc2Cl)o1` showed an IC50 [1] of 56.3 µM, an IC50 [2] of 97.7 µM and an IC50 [3] of 57.3 µM. It also gave an IC50 [4] of 47.6 µM.
With `COc1ccc([N+](=O)[O-])cc1-c1ccc(C(=O)O)o1` the IC50 [1] was 34.5 µM, the IC50 [2] was 36.2 µM and the IC50 [3] was 24.1 µM. It also gave an IC50 [4] of 0.642 µM.
`COC(=O)c1ccc(-c2ccccc2Cl)o1` was tested, and the IC50 [1] was > 200 µM, the IC50 [2] was > 200 µM and the IC50 [3] was > 200 µM. The IC50 [4] was 166 µM.
For `O=C(O)c1ccc(-c2ccccc2O)o1`, the IC50 [1] was 153 µM, the IC50 [2] was 190 µM and the IC50 [3] was 127 µM. It also gave an IC50 [4] of 6.92 µM.
Molecule `O=Cc1ccccc1-c1ccc(C(=O)O)o1` has an IC50 [1] of 67.5 µM, an IC50 [2] of 69.2 µM and an IC50 [3] of 82.6 µM. The IC50 [4] was 7.17 µM.
In the case of `NC(=O)c1ccc(-c2ccccc2Cl)o1`, the IC50 [1] is reported as 137 µM, the IC50 [2] is reported as > 200 µM and the IC50 [3] is reported as 71.4 µM. It also gave an IC50 [4] of 15.9 µM.
For `C=CCCOc1ccccc1-c1ccc(C(=O)O)o1`, the IC50 [1] was 113 µM, the IC50 [2] was 111 µM and the IC50 [3] was 93.5 µM. For the same molecule, the IC50 [4] was 3.65 µM.
Molecule `Nc1ccccc1-c1ccc(C(=O)O)o1` has an IC50 [1] of 94.5 µM, an IC50 [2] of 95.8 µM and an IC50 [3] of 56.6 µM. For the same molecule, the IC50 [4] was 12.5 µM.
In the case of `O=C(NO)c1ccc(-c2ccccc2Cl)o1`, the IC50 [1] is reported as 5.9 µM, the IC50 [2] is reported as 0.793 µM and the IC50 [3] is reported as 4.61 µM. It also gave an IC50 [4] of 0.469 µM.
Work on `Cc1cccc(-c2ccc(C(=O)O)o2)c1Cl` yielded an IC50 [1] of 188 µM, an IC50 [2] of 196 µM and an IC50 [3] of 187 µM. It also gave an IC50 [4] of 1.71 µM.
With `O=C(O)c1ccc(-c2ccccc2)o1` the IC50 [1] was 195 µM, the IC50 [2] was > 200 µM and the IC50 [3] was 188 µM. The IC50 [4] was 16.3 µM.
`O=C(O)c1ccc(Cc2ccccc2Cl)o1` showed an IC50 [1] of 191 µM, an IC50 [2] of 199 µM and an IC50 [3] of 158 µM. It also gave an IC50 [4] of 1.22 µM.
With `O=C(O)c1ccc(-c2ccccc2CO)o1` the IC50 [1] was 190 µM, the IC50 [2] was > 200 µM and the IC50 [3] was 189 µM. The IC50 [4] was 10 µM.
`O=C(O)Cc1ccc(Cc2ccccc2Cl)o1` gave an IC50 [1] of 117 µM, an IC50 [2] of 177 µM and an IC50 [3] of 77.3 µM. The IC50 [4] was 0.784 µM.
With `Cc1cc([N+](=O)[O-])ccc1-c1ccc(C(=O)O)o1` the IC50 [1] was 28.5 µM, the IC50 [2] was 150 µM and the IC50 [3] was 59.5 µM. For the same molecule, the IC50 [4] was 1.11 µM.
`COCCOc1ccccc1-c1ccc(C(=O)O)o1` was tested, and the IC50 [1] was 163 µM, the IC50 [2] was 169 µM and the IC50 [3] was 103 µM. For the same molecule, the IC50 [4] was 9.45 µM.
With `O=C(O)c1ccc(-c2ccccc2[N+](=O)[O-])o1` the IC50 [1] was 175 µM, the IC50 [2] was 178 µM and the IC50 [3] was 120 µM. It also gave an IC50 [4] of 1.08 µM.
`O=C(O)c1ccc(Cc2ccc(Cl)cc2)o1` was tested, and the IC50 [1] was 89.8 µM, the IC50 [2] was 138 µM and the IC50 [3] was 90.5 µM. The IC50 [4] was 44.6 µM.
In the case of `O=C(O)c1ccc(-c2cc([N+](=O)[O-])ccc2F)o1`, the IC50 [1] is reported as 193 µM, the IC50 [2] is reported as 199 µM and the IC50 [3] is reported as 157 µM. The IC50 [4] was 14.9 µM.
`NNC(=O)c1ccc(-c2ccccc2Cl)o1` gave an IC50 [1] of 5.78 µM, an IC50 [2] of 58 µM and an IC50 [3] of 77.1 µM.
With `O=C(NO)c1ccc(Cc2ccccc2Cl)o1` the IC50 [1] was 107 µM, the IC50 [2] was 122 µM and the IC50 [3] was 119 µM. For the same molecule, the IC50 [4] was 9.84 µM.
With `O=C(O)c1ccc(-c2ccccc2C(=O)O)o1` the IC50 [1] was > 200 µM, the IC50 [2] was > 200 µM and the IC50 [3] was > 200 µM. For the same molecule, the IC50 [4] was 23.5 µM.
With `O=C(O)c1ccc(-c2ccccc2F)o1` the IC50 [1] was > 200 µM, the IC50 [2] was > 200 µM and the IC50 [3] was > 200 µM. It also gave an IC50 [4] of 13.6 µM.
`O=C(O)c1ccc(-c2cccc(Cl)c2)o1` was tested, and the IC50 [1] was > 200 µM, the IC50 [2] was > 200 µM and the IC50 [3] was 199 µM. It also gave an IC50 [4] of 11.7 µM.
With `CONC(=O)c1ccc(-c2ccccc2Cl)o1` the IC50 [1] was 51.2 µM, the IC50 [2] was 178 µM and the IC50 [3] was 57.5 µM. For the same molecule, the IC50 [4] was 40 µM.
In the case of `C#CCOc1ccccc1-c1ccc(C(=O)O)o1`, the IC50 [1] is reported as 171 µM, the IC50 [2] is reported as 193 µM and the IC50 [3] is reported as 98.9 µM. For the same molecule, the IC50 [4] was 4.71 µM.
`CCOc1ccccc1-c1ccc(C(=O)O)o1` was tested, and the IC50 [1] was > 200 µM, the IC50 [2] was > 200 µM and the IC50 [3] was 147 µM. It also gave an IC50 [4] of 1.13 µM.
